Measurements as given in patent US20250319059A1, “Method for Treating Inflammatory Dysfunction of the Oral Mucosa” (VIVASOR, INC., priority 2022, published 2025).

Experiments:
TRPV1 receptor = TRPV1 receptor (Homo sapiens, UniProt Q8NER1); conditions: cited from earlier work
[1] = system: oral pain associated with Feline Chronic Gingivostomatitis (FCGS); assay: Veterinarian Specific Outcome Measures (VSOM) in client-owned cats after oral topical RTX; type: in vivo, cat; conditions: for treatment success rate (VSOM): Day 28 vs Day 0, success = reduction of at least 2 in total VSOM score
Description: (§1) Characterize the required dose of RTX applied topically to the oral mucosa for the control of pain associated with Feline Chronic Gingivostomatitis (FCGS).
• Cat less than 12 months of age. • Cat's body weight less than 2 kg. • Cat unlikely to survive a 30-min anesthesia or sedation procedure. • Cat was unlikely to survive 4 weeks due to health issues other than oral pain. • Cat was unavailable for the entire study duration or was felt to be unsuitable by the Investigator for another reason. • Cat was participating in another study • Cat was pregnant or lactating. • Cat underwent an oral surgical procedure within 30 days prior to screening. • Cat received cannabinoid agonists such as cannabidiol (CBD) or anandamide within 28 days of starting the study. • Cat received oral corticosteroids within 1 week of starting the study, or injectable corticosteroids within 6 weeks of starting the study, and/or required medication or supplements during the study that may have interfered with the objective of the study.
Twenty-eight cats, each weighing over 2 kg and over 12 months of age, were enrolled in this study. There was no apparent trend in the ages of cats enrolled in the study. Enrolled cats were physically examined (their physical exam findings such as general appearance, ears/eyes/mouth, abdominal/gastrointestinal, musculoskeletal, neurological urogenital, lymphatic etc. . . . were recorded). Their weight and vital signs were recorded as well.
Veterinarian Specific Outcome Measures (VSOM)—Qualitative assessment of common stomatitis signalment was carried out prior to the beginning of treatment and on day 7, 14, and 28 (at the conclusion of treatment). Cats were assessed for drooling, pain while eating, pain at manipulation and swelling of the oral tissue. Each clinical sign was graded from 1 to 5 (1=no problem; 5=Impossible).
Treatment success was defined as “a reduction of at least 2 in total VSOM score at Day 28 compared to VSOM score at Day 0. A decrease of less than 2, no change, or an increase in total score was defined as treatment failure. Cats presenting an increase in any individual VSOM were considered a treatment failure regardless of total VSOM score. […] The results of each cohort were not compared statistically; only descriptive statistics were generated due to the small number of cats per cohort and lack of randomization. However, there was no evidence of a relationship between treatment success and dose.
(§2) Each animal was randomly assigned to one of three groups. Ten cats (group 1) were treated with 6.25 μg RTX (total) diluted with sterile saline for a total volume of 2 mL. Nine cats (group 2) were treated with 12.5 μg RTX (total) diluted with sterile saline for a total volume of 2 mL. Nine cats (group 3) were treated with 25 μg RTX (total) diluted with sterile saline for a total volume of 2 mL.
RTX solution was applied using a clean cotton tip applicator directly to the visible lesions and adjacent tissue. The non-target dosing areas (caudal mouth/pharynx) were protected using a 4×4 gauze. Any targeted area was dried with sterile gauze or using the air-water syringe system. The saturated applicator for was gently pressed along the targeted areas for 10 seconds. Two to three coats per lesion were applied using the same cotton tip applicator. The area was allowed to dry for a few seconds before moving to the next lesion by exposing the area to the air or by gently using the air-water syringe system. […]

[2] = Preliminary safety study of oral topical application of RTX in cats with gingival inflammation; type: in vivo, cat
Description: This example provides safety data related to oral topical application of RTX. The primary objective of this study was to determine the initial tolerance of RTX when it is topically administered under anesthesia to the oral cavity of cats as a single treatment.
Four cats were enrolled in this study. Each cat presented with mild to moderate gingival inflammation. The cats were allocated to two treatment groups according to severity of gingival inflammation. Group 1 cats, those with mild cases of gingivitis, were dosed on study Day 0 with a diluted RTX solution (12.5 μg/mL) applied topically to the maxillary and mandibular gingival tissue (buccal and palatal/lingual gingiva). Group 2 cats, those with current or recent historical moderate gingivitis, underwent the same treatment regimen on study Day 0 with the addition of application to the palatal and sublingual tissue.
Total dose of RTX tested per cat (diluted with sterile saline for a total volume of 2 mL) was: 17.5 μg (Group 1 cat), 23.75 μg (Group 1 cat), or 25 μg (Group 2 cats) RTX. One cat (pudding) received 17.5 μg RTX, one cat (Clank) received 23.75 μg RTX, and two cats (Forbes and Bianca) received 25 μg RTX. A single application of RTX was topically applied inside the mouth of each cat. The RTX was applied to the entire mouth.
Cats were anesthetized during treatment administration and for 30 minutes post-dose. Diphenhydramine (2 mg/kg, IM) was given as an anesthetic pre-treatment a minimum of 30 minutes prior to dosing. Induction was then performed using a combination of medetomidine 0.03 mg/kg, ketamine 5 mg/kg and butorphanol 0.2 mg/kg; dose volume 0.1 mL/kg, IM. Following application of a lidocaine hydrochloride spray to the larynx, intubation was performed and anesthesia was maintained using an isofluraneoxygen mixture. Standard anesthetic monitoring of vital signs was performed approximately every 5-10 minutes following dosing and precautions were taken to avoid low body temperature throughout the procedure. Cats remained under anesthesia for 30 minutes following dosing for additional monitoring. Upon removal from anesthetic, reversal drug atipamezole (0.2 mg/kg, IM) was administered.
To assess RTX tolerance, adverse event monitoring was performed using the following parameters: measurement of vital signs during anesthesia; physical examinations performed 0.25, 0.5, 1, 2, 3 and 4 hours following recovery from anesthesia (i.e. removal of endotracheal tube) as well as 1, 3 and 7 days post-dose in both the morning (AM) and afternoon (PM); twice daily clinical observations; daily food consumption measurement.

[3] = Safety variables of the FCGS effectiveness study (mortality, adverse events, clinical observations, body weight, ability to eat); type: in vivo, cat
Description: Mortality—No mortality, whether by natural death or euthanasia, occurred on this study.
An adverse event (AE) is defined as any undesirable event, expected or not, occurring to a study animal during the study, regardless of whether the event was considered to have a causal relation to a study treatment. Adverse events were reported at scheduled times during the study from Day 0 to the last day of the study. Certain adverse events, defined as serious adverse events, were reported in an expedited fashion to allow for possible study protocol modifications. A Serious Adverse Event (SAE) is defined as any medical occurrence that results in hospitalization longer than 24 hours or results in significant disability or morbidity or is life threatening or results in death.
Severity, causality and outcome of adverse events were recorded. Causality is a determination of whether there was a reasonable possibility that the drug may have caused or contributed to an AE. This relationship was described as “unlikely”, “possible”, “probable”, “definite”, or “unknown.”
On Day 0, starting once the RTX was applied to all oral lesions (time 0), clinical observations were carried out by the veterinarian at 10, 30, 45, 60 (±5 minutes), as well as at 2 hours (±10 minutes) and 4 hours (±15 minutes), post-treatment administration. Cats were observed past 4 hours post-treatment administration, as necessary or until resolution of abnormal observations.
Cats were weighed on days 0, 7, 14, and 28. Normal body weights were reported for 24 of the 28 cats. Two cats (one in Cohort 1 and one in Cohort 3) had abnormal (low) weight on day 0, but normal weight by day 28.
Cats' ability to eat was assessed on days 0, 7, 14, and 28. The majority of the cats' ability to eat improved throughout the study. On day 28, no differences in ability to eat were detected between cohorts.

[4] = system: oral inflammation, Feline Chronic Gingivostomatitis (FCGS); assay: Stomatitis Disease Activity Index (SDAI) in client-owned cats after oral topical RTX; type: in vivo, cat; conditions: for treatment success (SDAI): success = 20% reduction in Day 28 SDAI vs Day 0 (post-hoc)
Experimental: as §1
Stomatitis Disease Activity Index (SDAI)—This semi-quantitative assessment of oral inflammation was carried out prior to the beginning of treatment (day 0) and at day 28 (at the conclusion of treatment). Cats were assessed by owner for cat's interest in food and ability to eat, perceived comfort, grooming behavior, and activity levels. Each assessment was graded from 0 to 3 (0=no problem; 3=severe problems).
The average of the scores in Table 1 (total score divided by 4) were entered in the “owner evaluation” box on the initial SDAI (Stomatitis Disease Activity Index) tabulation sheet of Table 2. The rest of the questions on SDAI survey were completed by the veterinarian prior to the beginning of treatment (day 0) and at day 28 (at the conclusion of treatment). Each assessment was graded from 0 to 3 (0=no problem; 3=severe problems) as follows:
Treatment success using the SDAI metric was defined post-hoc as a 20% reduction in the Day 28 SDAI compared to Day 0. Based on this definition, the percentage success was 100.0%, 80.0% and 44.4% for Cohorts 1, 2, and 3 respectively. The discrepancy in the success rate of Cohort 3 using the two metrics may be due to a higher baseline SDAI score.
as §2
RTX solution was applied using a clean cotton tip applicator directly to the visible lesions and adjacent tissue. The non-target dosing areas (caudal mouth/pharynx) were protected using a 4×4 gauze. Any targeted area was dried with sterile gauze or using the air-water syringe system. The saturated applicator for was gently pressed along the targeted areas for 10 seconds. Two to three coats per lesion were applied using the same cotton tip applicator. The area was allowed to dry for a few seconds before moving to the next lesion by exposing the area to the air or by gently using the air-water syringe system. When possible, and in absence of active bleeding due to manipulation, the RTX solution was allowed to drip into the gingival sulcus. If a target area was actively bleeding, an attempt to decrease or stop the bleeding was made before the RTX application.

Chain of TRPV1 receptor (Q8NER1 whole entry): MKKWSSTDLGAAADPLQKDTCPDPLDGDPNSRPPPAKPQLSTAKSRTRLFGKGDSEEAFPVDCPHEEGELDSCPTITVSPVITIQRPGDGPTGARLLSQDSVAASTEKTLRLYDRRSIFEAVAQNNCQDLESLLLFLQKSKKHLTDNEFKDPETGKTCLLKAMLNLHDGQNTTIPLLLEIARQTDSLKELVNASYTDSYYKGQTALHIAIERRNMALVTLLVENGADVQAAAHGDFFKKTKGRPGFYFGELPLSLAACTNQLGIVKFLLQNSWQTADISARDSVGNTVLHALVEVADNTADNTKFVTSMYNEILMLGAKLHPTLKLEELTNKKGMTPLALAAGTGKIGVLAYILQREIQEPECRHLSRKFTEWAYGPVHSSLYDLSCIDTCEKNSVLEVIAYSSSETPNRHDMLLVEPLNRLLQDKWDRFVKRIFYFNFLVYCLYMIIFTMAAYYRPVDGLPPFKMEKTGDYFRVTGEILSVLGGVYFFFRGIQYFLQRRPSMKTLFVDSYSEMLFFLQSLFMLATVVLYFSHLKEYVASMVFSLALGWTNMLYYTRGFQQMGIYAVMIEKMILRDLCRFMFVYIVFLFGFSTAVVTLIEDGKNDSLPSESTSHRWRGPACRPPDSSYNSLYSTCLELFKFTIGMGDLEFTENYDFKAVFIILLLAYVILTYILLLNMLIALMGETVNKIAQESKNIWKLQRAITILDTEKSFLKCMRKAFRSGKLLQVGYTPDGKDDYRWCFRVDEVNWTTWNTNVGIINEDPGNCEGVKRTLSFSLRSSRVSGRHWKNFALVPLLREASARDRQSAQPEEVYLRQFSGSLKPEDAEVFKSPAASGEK

For C=C(C)[C@]12C[C@@H](C)[C@@]34O[C@](Cc5ccccc5)(O[C@@H]1[C@@H]3C=C(COC(=O)Cc1ccc(O)c(OC)c1)C[C@]1(O)C(=O)C(C)=C[C@@H]41)O2 [RTX, resiniferatoxin], the “potency relative to capsaicin” value (TRPV1 receptor; TRPV1 receptor agonist) is listed as 1000-10,000 times, the Scoville scale (TRPV1 receptor) is listed as 16 billion and the “control of pain and inflammation” value ([1]; 6.25 μg RTX, 28 days) is listed as “effective in controlling pain and inflammation for 28 days”. The “treatment success rate (VSOM)” value ([1]; Cohort 1, 6.25 μg RTX topical oral) was 90.0%, the “treatment success rate (VSOM)” value ([1]; Cohort 2, 12.5 μg RTX topical oral) was 80.0% and the “treatment success (VSOM) on Day 14” value ([1]; Cohort 2, 12.5 μg RTX, Day 14) was “all cats in Cohort 2 were a success”. The “treatment success rate (VSOM)” value ([1]; Cohort 3, 25 μg RTX topical oral) was 88.9%, the “time to resolution of mild increases in severity of gingivitis” value ([2]; 2 cats, without intervention) was ≤ 3 days post-dose and the food consumption ([2]; 8 days following RTX administration) was “returned to normal by day seven”. For the same compound, the body weight ([2]; day 8 vs before administration) was “by day 8 the weight was back to normal”, the tolerability ([2]; single topical oral application 17.5-25 μg RTX (12.5 μg/mL), 4 cats, followed 8 days) was “well tolerated with only mild and transient adverse events” and the “severity of adverse events” value ([3]; 6.25-25 μg RTX topical oral) was “Most of the AE were graded as mild”. The “serious adverse events (SAE) during in-life” value ([3]; 28 cats, 6.25-25 μg RTX topical oral) was “One”, the mortality ([3]; 28 cats, 6.25-25 μg RTX topical oral, 28 days) was “No mortality” and the “signs of systemic RTX exposure” value ([3]; application on inflamed oral mucosa) was “did not exhibit signs of systemic RTX exposure”. The ability to eat ([3]; assessed days 0, 7, 14, 28, all cohorts) was “most of the cats in all cohorts that completed the study had an improvement in the ability to eat”, the “cats with normal body weights” value ([3]; weighed days 0, 7, 14, 28) was 24 of the 28 and the “time to resolution of clinical signs (panting, hypersalivation, tachycardia, restlessness) post-treatment” value ([3]; without medical intervention) was ≤ 3 h. For the same compound, the “treatment success (SDAI)” value ([4]; Cohort 1, 6.25 μg RTX) was 100.0%, the “treatment success (SDAI)” value ([4]; Cohort 2, 12.5 μg RTX) was 80.0% and the “treatment success (SDAI)” value ([4]; Cohort 3, 25 μg RTX) was 44.4%. For the same compound, the “percent improvement in SDAI” value ([4]; day 0 to day 28) was “about 60%”.
